The values below come from US9884868B2, “TGF-beta inhibitors” (Rigel Pharmaceuticals, Inc., priority 2015, dated 2018).

A word on the pIC50: it is −log10 of the IC50, conventionally taken in molar units.

One assay concerns the target HIS-TGF-βR2 WT (Homo sapiens (Human), UniProt P37173). Description: HTRF probe displacement assay with HIS-TGF-βR2 WT. A general note: Time-resolved FRET reads energy transfer from a long-lived donor to a nearby acceptor.
The next assay has as its target HIS-TGF-βR1 T204D (Homo sapiens (Human), UniProt P36897, T204D). Description: HTRF probe displacement assay with HIS-TGF-βR1 T204D.
The mark [1] stands for this setting: read-out: TGFBr2 IC50, HTRF probe displacement, 1 nM HIS-TGF-βR2 WT, 1 hour at room temperature.
Setting [2] is: read-out: TGFbr1 IC50, HTRF probe displacement, 1 nM HIS-TGF-βR1 T204D, 1 hour at room temperature.

pIC50: −log10 of the molar value. Where two headings read alike, the source gives them in different places.

HIS-TGF-βR2 WT, sequence (P37173 23-567): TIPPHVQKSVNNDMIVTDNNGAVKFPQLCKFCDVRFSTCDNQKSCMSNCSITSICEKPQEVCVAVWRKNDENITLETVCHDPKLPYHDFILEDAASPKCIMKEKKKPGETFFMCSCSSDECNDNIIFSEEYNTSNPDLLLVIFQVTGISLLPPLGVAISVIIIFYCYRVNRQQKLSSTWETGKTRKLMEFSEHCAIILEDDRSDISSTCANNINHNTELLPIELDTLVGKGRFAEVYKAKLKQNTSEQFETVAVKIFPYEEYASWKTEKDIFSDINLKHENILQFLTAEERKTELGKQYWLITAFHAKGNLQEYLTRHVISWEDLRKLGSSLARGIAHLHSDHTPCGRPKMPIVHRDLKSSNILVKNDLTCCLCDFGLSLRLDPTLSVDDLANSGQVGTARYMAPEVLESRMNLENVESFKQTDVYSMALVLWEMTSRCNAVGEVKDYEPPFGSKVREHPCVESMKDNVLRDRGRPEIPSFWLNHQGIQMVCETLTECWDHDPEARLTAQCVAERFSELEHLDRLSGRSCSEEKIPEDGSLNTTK
HIS-TGF-βR1 T204D, sequence (P36897 34-503 T204D): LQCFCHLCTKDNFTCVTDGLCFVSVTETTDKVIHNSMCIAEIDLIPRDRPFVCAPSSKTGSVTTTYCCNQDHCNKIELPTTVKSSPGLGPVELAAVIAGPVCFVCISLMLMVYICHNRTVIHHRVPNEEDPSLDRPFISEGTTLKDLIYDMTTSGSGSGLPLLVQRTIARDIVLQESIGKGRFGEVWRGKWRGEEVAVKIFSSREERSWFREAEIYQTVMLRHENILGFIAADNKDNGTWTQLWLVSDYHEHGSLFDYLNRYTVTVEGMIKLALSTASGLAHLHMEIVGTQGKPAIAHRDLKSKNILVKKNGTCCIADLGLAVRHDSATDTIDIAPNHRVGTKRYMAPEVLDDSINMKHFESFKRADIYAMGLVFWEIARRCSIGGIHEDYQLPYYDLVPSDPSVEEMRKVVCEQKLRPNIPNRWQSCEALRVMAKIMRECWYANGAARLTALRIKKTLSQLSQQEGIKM

For the molecule `N#Cc1cnc2ccc(-c3c(-c4ccc(F)cc4)ncn3[C@H](CO)CC(F)(F)F)nn12` [29′, (S)-6-(4-(4-fluorophenyl)-1-(4,4,4-trifluoro-1-hydroxybutan-2-yl)-1H-imidazol-5-yl)imidazo[1,2-b]pyridazine-3-carbonitrile], the pIC50 is < 4.82 at HIS-TGF-βR2 WT (setting [1]) and 8.19 on HIS-TGF-βR1 T204D (setting [2]). For `NC(=O)c1cnc2ccc(-c3c(-c4ccc(F)c(Cl)c4)ncn3CCN3CCCC3)nn12` [143′, 6-(4-(3-chloro-4-fluorophenyl)-1-(2-(pyrrolidin-1-yl)ethyl)-1H-imidazol-5-yl)imidazo[1,2-b]pyridazine-3-carboxamide] the same measures were < 4.82 and 8.04.

For `CC(C)(O)CCn1cnc(-c2ccc(F)c(Cl)c2)c1-c1ccc2ncc(C(N)=O)n2n1` [139′, 6-(4-(3-chloro-4-fluorophenyl)-1-(3-hydroxy-3-methylbutyl)-1H-imidazol-5-yl)imidazo[1,2-b]pyridazine-3-carboxamide], the pIC50 at HIS-TGF-βR2 WT (setting [1]) was < 4.82; at HIS-TGF-βR1 T204D (setting [2]), 8.28. On the same counts, the results for `COC(=O)N1CC(n2cnc(-c3ccc(F)cc3)c2-c2ccc3ncc(C#N)n3n2)C1` [Example 190′, methyl 3-(5-(3-cyanoimidazo[1,2-b]pyridazin-6-yl)-4-(4-fluorophenyl)-1H-imidazol-1-yl)azetidine-1-carboxylate] are < 4.82 and 7.28.

On to `Fc1ccc(-c2ncn(CC(F)F)c2-c2ccc3ncc(N4CCOCC4)n3c2)cc1` [Example 289′, 4-(6-(1-(2,2-difluoroethyl)-4-(4-fluorophenyl)-1H-imidazol-5-yl)imidazo[1,2-a]pyridin-3-yl)morpholine], for which the negative-log IC50 (pIC50) is < 4.82 on HIS-TGF-βR2 WT (setting [1]) and 6.42 on HIS-TGF-βR1 T204D (setting [2]). For `COCC(C1CC1)n1cnc(-c2ccc(F)cc2)c1-c1ccc2ncc(C(N)=O)n2n1` (stereo not shown) [130′, 6-(1-(1-cyclopropyl-2-methoxyethyl)-4-(4-fluorophenyl)-1H-imidazol-5-yl)imidazo[1,2-b]pyridazine-3-carboxamide] the same measures were < 4.82 and 8.68. For `CC(C)(C)C(=O)NCc1cnc2ccc(-c3c(-c4ccc(F)cc4)ncn3CC(F)F)nn12` [Example 202′, N-((6-(1-(2,2-difluoroethyl)-4-(4-fluorophenyl)-1H-imidazol-5-yl)imidazo[1,2-b]pyridazin-3-yl)methyl)pivalamide] the same measures were < 4.82 and 7.36.

In the case of `COC(=O)N1CCn2c(nc(-c3ccc(F)cc3)c2-c2ccc3ncc(C(N)=O)n3c2)C1` [Example 291′, methyl 3-(3-carbamoylimidazo[1,2-a]pyridin-6-yl)-2-(4-fluorophenyl)-5,6-dihydroimidazo[1,2-a]pyrazine-7(8H)-carboxylate], the pIC50 is < 4.82 at HIS-TGF-βR2 WT (setting [1]) and 7.52 at HIS-TGF-βR1 T204D (setting [2]).

Regarding `CC(C)(O)CCn1cnc(-c2ccc(F)cc2)c1-c1ccc2ncc(C(N)=O)n2n1` [131′, 6-(4-(4-fluorophenyl)-1-(3-hydroxy-3-methylbutyl)-1H-imidazol-5-yl)imidazo[1,2-b]pyridazine-3-carboxamide], the pIC50 at HIS-TGF-βR2 WT (setting [1]) is < 4.82; on HIS-TGF-βR1 T204D (setting [2]) it was 7.55. On the same counts, the results for `NC(=O)c1cnc2ccc(-c3c(-c4ccc(F)cc4)ncn3C3CCC(F)(F)C3)nn12` (stereo not shown) [108′, 6-(1-(3,3-difluorocyclopentyl)-4-(4-fluorophenyl)-1H-imidazol-5-yl)imidazo[1,2-b]pyridazine-3-carboxamide] are < 4.82 and 8.68. `NC(=O)c1cnc2ccc(-c3c(-c4ccc(F)cc4)ncn3C3CCC(F)(F)CC3)nn12` [110′, 6-(1-(4,4-difluorocyclohexyl)-4-(4-fluorophenyl)-1H-imidazol-5-yl)imidazo[1,2-b]pyridazine-3-carboxamide]: the pIC50 at HIS-TGF-βR2 WT (setting [1]) was < 4.82; on HIS-TGF-βR1 T204D (setting [2]), 7.69. Turning to `N#Cc1cnc2ccc(-c3c(-c4ccc(F)c(Cl)c4)ncn3CC(O)C(F)(F)F)nn12` (stereo not shown) [55′, 6-(4-(3-chloro-4-fluorophenyl)-1-(3,3,3-trifluoro-2-hydroxypropyl)-1H-imidazol-5-yl)imidazo[1,2-b]pyridazine-3-carbonitrile], the negative-log IC50 (pIC50) at HIS-TGF-βR2 WT is < 4.82; at HIS-TGF-βR1 T204D it was 8.17. Take `CC(=O)N1CC(n2cnc(-c3ccc(F)cc3)c2-c2ccc3ncc(C#N)n3n2)C1` [Example 191′, 6-(1-(1-acetylazetidin-3-yl)-4-(4-fluorophenyl)-1H-imidazol-5-yl)imidazo[1,2-b]pyridazine-3-carbonitrile]: the negative-log IC50 (pIC50) is < 4.82 on HIS-TGF-βR2 WT (setting [1]) and 7.14 at HIS-TGF-βR1 T204D (setting [2]). In the case of `COC(=O)Nc1cnc2ccc(-c3c(-c4ccc(F)cc4)ncn3CC(F)F)cn12` [Example 284′, methyl (6-(1-(2,2-difluoroethyl)-4-(4-fluorophenyl)-1H-imidazol-5-yl)imidazo[1,2-a]pyridin-3-yl)carbamate], the figures for the negative logarithm of the IC50 (pIC50) on HIS-TGF-βR2 WT (setting [1]) and at HIS-TGF-βR1 T204D (setting [2]) were < 4.82 and 6.37, respectively. For `COC(=O)NCc1cnc2ccc(-c3c(-c4ccc(F)cc4)ncn3CC(F)F)nn12` [Example 200′, methyl ((6-(1-(2,2-difluoroethyl)-4-(4-fluorophenyl)-1H-imidazol-5-yl)imidazo[1,2-b]pyridazin-3-yl)methyl)carbamate], the pIC50 is < 4.82 on HIS-TGF-βR2 WT (setting [1]) and 7.92 at HIS-TGF-βR1 T204D (setting [2]).

On to `N#Cc1cnc2ccc(-c3c(-c4ccc(F)cc4)ncn3C3CCC(F)(F)CC3)nn12` [8′, 6-(1-(4,4-difluorocyclohexyl)-4-(4-fluorophenyl)-1H-imidazol-5-yl)imidazo[1,2-b]pyridazine-3-carbonitrile], for which the pIC50 is < 4.82 at HIS-TGF-βR2 WT (setting [1]) and 7.75 on HIS-TGF-βR1 T204D (setting [2]). For the molecule `N#Cc1cnc2ccc(-c3c(-c4ccc(C(F)(F)F)cc4)ncn3CC(F)F)nn12` [244′, 6-(1-(2,2-difluoroethyl)-4-(4-(trifluoromethyl)phenyl)-1H-imidazol-5-yl)imidazo[1,2-b]pyridazine-3-carbonitrile], the pIC50 at HIS-TGF-βR2 WT (setting [1]) is < 4.82; at HIS-TGF-βR1 T204D (setting [2]) it was 6.26. For `NC(=O)c1cnc2ccc(-c3c(-c4cc(Cl)c(F)cc4F)ncn3CC(F)F)cn12` [235′, 6-(4-(5-chloro-2,4-difluorophenyl)-1-(2,2-difluoroethyl)-1H-imidazol-5-yl)imidazo[1,2-a]pyridine-3-carboxamide] the same measures were < 4.82 and 9.00. As for `N#Cc1cnc2ccc(-c3c(-c4ccc(F)c(Cl)c4)ncn3C3CC(F)(F)C3)cn12` [99′, 6-(4-(3-chloro-4-fluorophenyl)-1-(3,3-difluorocyclobutyl)-1H-imidazol-5-yl)imidazo[1,2-a]pyridine-3-carbonitrile], the results for the negative-log IC50 (pIC50) on HIS-TGF-βR2 WT (setting [1]) and at HIS-TGF-βR1 T204D (setting [2]) were < 4.82 and 7.18, respectively. For `CC(=O)Nc1cccc(-c2ncn(CC(F)F)c2-c2ccc3ncc(C#N)n3n2)c1` [245′, N-(3-(5-(3-cyanoimidazo[1,2-b]pyridazin-6-yl)-1-(2,2-difluoroethyl)-1H-imidazol-4-yl)phenyl)acetamide] the same measures were < 4.82 and 7.31. For `Fc1ccc(-c2ncn(CC(F)F)c2-c2ccc3ncc(CNC4CC(F)(F)C4)n3c2)cc1` [276′, N-((6-(1-(2,2-difluoroethyl)-4-(4-fluorophenyl)-1H-imidazol-5-yl)imidazo[1,2-a]pyridin-3-yl)methyl)-3,3-difluorocyclobutanamine] the same measures were < 4.82 and 6.01. As for `NC(=O)c1cnc2ccc(-c3c(-c4ccc(F)c(Cl)c4)ncn3CCN3CCOCC3)cn12` [120′, 6-(4-(3-chloro-4-fluorophenyl)-1-(2-morpholinoethyl)-1H-imidazol-5-yl)imidazo[1,2-a]pyridine-3-carboxamide], the pIC50 was < 4.82 at HIS-TGF-βR2 WT (setting [1]) and 8.19 at HIS-TGF-βR1 T204D (setting [2]). On the same counts, the results for `CC(C)(C)OC(=O)N1CC(n2cnc(-c3ccc(F)cc3)c2-c2ccc3ncc(C(N)=O)n3n2)C1` [195A′, tert-butyl 3-(5-(3-carbamoylimidazo[1,2-b]pyridazin-6-yl)-4-(4-fluorophenyl)-1H-imidazol-1-yl)azetidine-1-carboxylate] are < 4.82 and 6.61. For `CC(C)(C)NC(=O)NCc1cnc2ccc(-c3c(-c4ccc(F)cc4)ncn3CC(F)F)nn12` [Example 199′, 1-(tert-butyl)-3-((6-(1-(2,2-difluoroethyl)-4-(4-fluorophenyl)-1H-imidazol-5-yl)imidazo[1,2-b]pyridazin-3-yl)methyl)urea] the same measures were < 4.82 and 8.02.

On to `OC(c1cnc2ccc(-c3c(-c4ccc(F)cc4)ncn3CC(F)F)nn12)C(F)(F)F` (stereo not shown) [Example 213′, 1-(6-(1-(2,2-difluoroethyl)-4-(4-fluorophenyl)-1H-imidazol-5-yl)imidazo[1,2-b]pyridazin-3-yl)-2,2,2-trifluoroethanol], for which the pIC50 was < 4.82 at HIS-TGF-βR2 WT (setting [1]) and 8.64 at HIS-TGF-βR1 T204D (setting [2]).

Regarding `CS(=O)(=O)Nc1ccccc1-c1ncn(CC(F)F)c1-c1ccc2ncc(C#N)n2n1` [239′, N-(2-(5-(3-cyanoimidazo[1,2-b]pyridazin-6-yl)-1-(2,2-difluoroethyl)-1H-imidazol-4-yl)phenyl)methanesulfonamide], the negative logarithm of the IC50 (pIC50) on HIS-TGF-βR2 WT (setting [1]) is < 4.82; on HIS-TGF-βR1 T204D (setting [2]) it was 6.28.

Consider `N#Cc1cnc2ccc(-c3c(-c4cccc(-c5ccccc5)c4)ncn3CC(F)F)nn12` [257′, 6-(4-([1,1′-biphenyl]-3-yl)-1-(2,2-difluoroethyl)-1H-imidazol-5-yl)imidazo[1,2-b]pyridazine-3-carbonitrile], for which the pIC50 on HIS-TGF-βR2 WT (setting [1]) was < 4.82. Same read-out and setting: then `CC(=O)N1CCn2c(nc(-c3ccc(F)cc3)c2-c2ccc3ncc(C(N)=O)n3c2)C1` [292′, 6-(7-acetyl-2-(4-fluorophenyl)-5,6,7,8-tetrahydroimidazo[1,2-a]pyrazin-3-yl)imidazo[1,2-a]pyridine-3-carboxamide], with < 4.82. On the same count and under the same terms, the same measure for `N#Cc1cnc2ccc(-c3c(-c4ccc(F)cc4C(F)(F)F)ncn3CC(F)F)nn12` [261′, 6-(1-(2,2-difluoroethyl)-4-(4-fluoro-2-(trifluoromethyl)phenyl)-1H-imidazol-5-yl)imidazo[1,2-b]pyridazine-3-carbonitrile]: < 4.82.
